Experiments:
A549 [1] = test: Antiproliferative activity aganist human A549 cells incubated for 72 hrs by MTT assay; assay type: functional, cell-based; settings: A549, 72 h
A-375 = test: Antiproliferative activity aganist human A375 cells incubated for 72 hrs by MTT assay; assay type: functional, cell-based; settings: A-375, 72 h
MCF7 [2] = test: Antiproliferative activity aganist human MCF7 cells incubated for 72 hrs by MTT assay; assay type: functional, cell-based; settings: MCF7, 72 h
MCF7 [3] = test: Induction of apoptosis in human MCF7 cells at IC50 incubated for 24 hrs by Annexin V-FITC/ethidium homodimer 3 staining based fluorescence microscopic method relative to control; assay type: functional
[4] = Selectivity index, ratio of IC50 for human PBMC cells to IC50 for human Jurkat cells; assay type: toxicity; settings: PBMC cells and Jurkat cells, read-out: Ratio IC50
A549 [5] = test: Induction of apoptosis in human A549 cells assessed as increase in apoptosis/necrosis cells at IC50 incubated for 24 hrs by Annexin V-FITC/ethidium homodimer 3 staining based fluorescence microscopic method relative to control; assay type: functional
[6] = target: Receptor tyrosine-protein kinase erbB-4 (Homo sapiens, UniProt Q15303); test: Inhibition of recombinant human N-terminal GST-tagged HER4 (682 to 993 residues) expressed in baculovirus infected Sf9 insect cells using Poly (4:1 Glu, Tyr) peptide as substrate incubated for 1 hr by ADP-Glo assay
PBMC = test: Cytotoxicity against human PBMC cells assessed as reduction in cell viability incubated for 72 hrs by MTT assay; assay type: cell-based
[7] = target: Receptor tyrosine-protein kinase erbB-2 (Homo sapiens, UniProt P04626); test: Inhibition of recombinant human N-terminal GST-tagged HER2 (676 to end residues) expressed in baculovirus infected Sf9 insect cells using Poly (4:1 Glu, Tyr) peptide as substrate incubated for 1 hr by ADP-Glo assay
Jurkat = test: Antiproliferative activity aganist human Jurkat cells incubated for 72 hrs by MTT assay; assay type: functional, cell-based
[8] = target: Epidermal growth factor receptor (Homo sapiens, UniProt P00533); test: Inhibition of recombinant human N-terminal GST-tagged EGFR (695 to end residues) expressed in baculovirus infected Sf9 insect cells using Poly (4:1 Glu, Tyr) peptide as substrate incubated for 1 hr by ADP-Glo assay
[9] = target: Platelet-derived growth factor receptor alpha (Homo sapiens, UniProt P16234); test: Inhibition of recombinant human N-terminal GST-tagged PDGFRalpha (550 to end residues) expressed in baculovirus infected Sf9 insect cells using Poly (4:1 Glu, Tyr) peptide as substrate incubated for 1 hr by ADP-Glo assay
MCF7 [10] = test: Induction of apoptosis in human MCF7 cells assessed as increase in necrosis cells at IC50 incubated for 24 hrs by Annexin V-FITC/ethidium homodimer 3 staining based fluorescence microscopic method relative to control; assay type: functional
MCF7 [11] = test: Induction of apoptosis in human MCF7 cells assessed as increase in apoptosis/necrosis cells at IC50 incubated for 24 hrs by Annexin V-FITC/ethidium homodimer 3 staining based fluorescence microscopic method relative to control; assay type: functional
A549 [12] = test: Induction of apoptosis in human A549 cells at IC50 incubated for 24 hrs by Annexin V-FITC/ethidium homodimer 3 staining based fluorescence microscopic method relative to control; assay type: functional
Insulin receptor = Insulin receptor (Homo sapiens, UniProt P06213); test: Inhibition of recombinant human N-terminal GST-tagged INSR (1011 to end residues) expressed in baculovirus infected Sf9 insect cells using Axltide as substrate incubated for 1 hr by ADP-Glo assay
A549 [13] = test: Induction of apoptosis in human A549 cells assessed as increase in necrosis cells at IC50 incubated for 24 hrs by Annexin V-FITC/ethidium homodimer 3 staining based fluorescence microscopic method relative to control; assay type: functional
[14] = target: Insulin-like growth factor 1 receptor (Homo sapiens, UniProt P08069); test: Inhibition of recombinant human N-terminal His-tagged IGF1R (960 to end residues) expressed in baculovirus infected Sf9 insect cells using IGF1Rtide as substrate incubated for 1 hr by ADP-Glo assay
[15] = target: Platelet-derived growth factor receptor beta (Homo sapiens, UniProt P09619); test: Inhibition of recombinant human N-terminal GST-tagged PDGFRbeta (557 to end residues) expressed in baculovirus infected Sf9 insect cells using Poly (4:1 Glu, Tyr) peptide as substrate incubated for 1 hr by ADP-Glo assay
[16] = target: Vascular endothelial growth factor receptor 2 (Homo sapiens, UniProt P35968); test: Inhibition of recombinant human N-terminal GST-tagged KDR (789 to end residues) expressed in baculovirus infected Sf9 insect cells using Poly (4:1 Glu, Tyr) peptide as substrate incubated for 1 hr by ADP-Glo assay

Chain of Insulin receptor (P06213 28-758 limits assumed): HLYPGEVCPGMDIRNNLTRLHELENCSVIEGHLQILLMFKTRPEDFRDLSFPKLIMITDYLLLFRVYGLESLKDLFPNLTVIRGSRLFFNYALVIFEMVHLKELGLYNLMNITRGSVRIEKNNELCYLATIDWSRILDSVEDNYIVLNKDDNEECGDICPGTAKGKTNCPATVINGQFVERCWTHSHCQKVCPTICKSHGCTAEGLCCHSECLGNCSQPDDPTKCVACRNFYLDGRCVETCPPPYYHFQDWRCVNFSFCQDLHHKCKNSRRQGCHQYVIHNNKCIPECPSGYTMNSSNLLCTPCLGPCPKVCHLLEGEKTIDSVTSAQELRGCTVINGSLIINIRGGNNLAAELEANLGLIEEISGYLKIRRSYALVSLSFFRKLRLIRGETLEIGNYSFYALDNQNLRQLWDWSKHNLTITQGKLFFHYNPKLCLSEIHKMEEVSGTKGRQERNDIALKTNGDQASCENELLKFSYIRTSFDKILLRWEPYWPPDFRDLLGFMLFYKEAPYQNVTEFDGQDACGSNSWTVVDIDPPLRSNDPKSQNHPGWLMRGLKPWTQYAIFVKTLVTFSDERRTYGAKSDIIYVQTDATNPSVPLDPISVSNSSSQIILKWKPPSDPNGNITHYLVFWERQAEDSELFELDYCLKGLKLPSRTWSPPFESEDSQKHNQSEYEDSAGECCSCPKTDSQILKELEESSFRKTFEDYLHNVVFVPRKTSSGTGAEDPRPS
Chain of Insulin receptor (P06213 763-1382 limits assumed): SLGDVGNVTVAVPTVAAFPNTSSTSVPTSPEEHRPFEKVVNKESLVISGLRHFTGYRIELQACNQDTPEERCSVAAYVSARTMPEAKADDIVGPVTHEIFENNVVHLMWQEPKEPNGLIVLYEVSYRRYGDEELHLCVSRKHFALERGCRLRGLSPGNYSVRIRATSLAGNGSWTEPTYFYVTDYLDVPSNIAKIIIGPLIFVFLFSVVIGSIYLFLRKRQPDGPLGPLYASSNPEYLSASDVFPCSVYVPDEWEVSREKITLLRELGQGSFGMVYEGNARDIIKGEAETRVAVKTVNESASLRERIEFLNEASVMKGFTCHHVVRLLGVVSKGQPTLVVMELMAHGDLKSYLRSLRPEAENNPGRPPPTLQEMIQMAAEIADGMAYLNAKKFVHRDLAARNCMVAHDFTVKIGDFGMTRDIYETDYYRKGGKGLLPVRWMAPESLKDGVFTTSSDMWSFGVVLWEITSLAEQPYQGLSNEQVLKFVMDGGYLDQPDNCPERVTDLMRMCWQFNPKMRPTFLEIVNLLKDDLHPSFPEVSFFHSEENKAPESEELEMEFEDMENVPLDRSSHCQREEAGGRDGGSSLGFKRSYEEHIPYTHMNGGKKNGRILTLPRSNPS
Chain of Insulin-like growth factor 1 receptor (P08069 31-736 limits assumed): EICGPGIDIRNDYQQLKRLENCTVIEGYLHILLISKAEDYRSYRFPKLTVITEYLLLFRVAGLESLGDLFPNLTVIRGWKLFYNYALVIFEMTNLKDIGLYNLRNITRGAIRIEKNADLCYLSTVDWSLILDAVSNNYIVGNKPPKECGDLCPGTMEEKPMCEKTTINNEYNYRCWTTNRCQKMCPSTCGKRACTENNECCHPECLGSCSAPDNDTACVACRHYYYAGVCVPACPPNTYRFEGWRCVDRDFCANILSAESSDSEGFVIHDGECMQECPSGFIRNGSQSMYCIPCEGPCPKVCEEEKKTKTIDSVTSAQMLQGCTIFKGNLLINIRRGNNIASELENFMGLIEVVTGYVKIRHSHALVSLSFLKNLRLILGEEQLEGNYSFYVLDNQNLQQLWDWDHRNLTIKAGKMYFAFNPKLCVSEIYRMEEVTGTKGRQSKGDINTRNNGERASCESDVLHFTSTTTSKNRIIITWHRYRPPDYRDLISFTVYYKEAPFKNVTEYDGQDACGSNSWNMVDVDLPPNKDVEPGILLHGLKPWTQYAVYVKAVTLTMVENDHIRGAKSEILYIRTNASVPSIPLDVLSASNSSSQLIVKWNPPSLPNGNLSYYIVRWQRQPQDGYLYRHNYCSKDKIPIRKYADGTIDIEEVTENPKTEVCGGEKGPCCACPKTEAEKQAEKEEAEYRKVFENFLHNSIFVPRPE
Chain of Insulin-like growth factor 1 receptor (P08069 741-1367 limits assumed): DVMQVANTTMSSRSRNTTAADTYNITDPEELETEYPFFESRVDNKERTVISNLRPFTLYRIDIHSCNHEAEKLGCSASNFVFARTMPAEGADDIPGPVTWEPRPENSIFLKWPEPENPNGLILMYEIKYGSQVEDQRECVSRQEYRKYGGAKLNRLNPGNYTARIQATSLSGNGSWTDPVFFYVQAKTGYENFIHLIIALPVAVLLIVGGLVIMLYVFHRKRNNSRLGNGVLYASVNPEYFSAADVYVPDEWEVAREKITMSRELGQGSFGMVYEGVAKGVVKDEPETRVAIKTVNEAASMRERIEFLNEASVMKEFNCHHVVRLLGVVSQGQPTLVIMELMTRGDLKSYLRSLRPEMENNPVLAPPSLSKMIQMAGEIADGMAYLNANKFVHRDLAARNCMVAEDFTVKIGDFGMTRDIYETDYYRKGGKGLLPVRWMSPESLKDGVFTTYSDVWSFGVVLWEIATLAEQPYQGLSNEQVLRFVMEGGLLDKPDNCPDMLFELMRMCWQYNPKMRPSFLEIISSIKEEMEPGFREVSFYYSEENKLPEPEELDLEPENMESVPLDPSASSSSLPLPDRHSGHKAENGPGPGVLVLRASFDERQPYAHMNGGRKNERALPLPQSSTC
Chain of Platelet-derived growth factor receptor beta (P09619 whole entry): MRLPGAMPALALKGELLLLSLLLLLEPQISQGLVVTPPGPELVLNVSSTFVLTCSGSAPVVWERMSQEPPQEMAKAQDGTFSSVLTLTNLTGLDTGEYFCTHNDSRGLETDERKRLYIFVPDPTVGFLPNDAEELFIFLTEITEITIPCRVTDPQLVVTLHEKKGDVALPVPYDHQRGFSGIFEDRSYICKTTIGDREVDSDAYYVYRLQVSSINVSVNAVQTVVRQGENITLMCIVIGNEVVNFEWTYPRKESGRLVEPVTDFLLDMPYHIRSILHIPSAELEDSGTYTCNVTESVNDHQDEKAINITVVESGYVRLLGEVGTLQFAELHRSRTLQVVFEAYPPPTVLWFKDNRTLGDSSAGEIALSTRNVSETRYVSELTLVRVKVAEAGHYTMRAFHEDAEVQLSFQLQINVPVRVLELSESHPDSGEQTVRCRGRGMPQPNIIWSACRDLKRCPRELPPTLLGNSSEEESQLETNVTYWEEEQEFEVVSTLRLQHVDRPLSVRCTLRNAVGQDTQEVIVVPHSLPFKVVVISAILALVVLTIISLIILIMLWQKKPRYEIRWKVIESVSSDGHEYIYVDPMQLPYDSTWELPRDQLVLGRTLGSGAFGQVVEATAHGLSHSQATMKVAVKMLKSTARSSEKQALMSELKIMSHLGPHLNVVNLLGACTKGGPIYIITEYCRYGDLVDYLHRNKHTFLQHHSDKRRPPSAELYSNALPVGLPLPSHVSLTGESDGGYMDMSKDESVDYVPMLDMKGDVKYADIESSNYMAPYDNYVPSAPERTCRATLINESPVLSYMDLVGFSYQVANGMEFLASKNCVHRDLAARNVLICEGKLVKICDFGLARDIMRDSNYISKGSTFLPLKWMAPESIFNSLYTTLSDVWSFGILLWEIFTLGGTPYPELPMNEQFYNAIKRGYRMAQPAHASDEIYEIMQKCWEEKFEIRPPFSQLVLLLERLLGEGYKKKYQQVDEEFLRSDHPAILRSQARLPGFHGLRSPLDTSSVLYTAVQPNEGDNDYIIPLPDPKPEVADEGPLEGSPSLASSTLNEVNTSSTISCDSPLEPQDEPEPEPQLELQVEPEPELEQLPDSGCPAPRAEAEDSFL
Chain of Receptor tyrosine-protein kinase erbB-4 (Q15303 whole entry, the tested form may be a part): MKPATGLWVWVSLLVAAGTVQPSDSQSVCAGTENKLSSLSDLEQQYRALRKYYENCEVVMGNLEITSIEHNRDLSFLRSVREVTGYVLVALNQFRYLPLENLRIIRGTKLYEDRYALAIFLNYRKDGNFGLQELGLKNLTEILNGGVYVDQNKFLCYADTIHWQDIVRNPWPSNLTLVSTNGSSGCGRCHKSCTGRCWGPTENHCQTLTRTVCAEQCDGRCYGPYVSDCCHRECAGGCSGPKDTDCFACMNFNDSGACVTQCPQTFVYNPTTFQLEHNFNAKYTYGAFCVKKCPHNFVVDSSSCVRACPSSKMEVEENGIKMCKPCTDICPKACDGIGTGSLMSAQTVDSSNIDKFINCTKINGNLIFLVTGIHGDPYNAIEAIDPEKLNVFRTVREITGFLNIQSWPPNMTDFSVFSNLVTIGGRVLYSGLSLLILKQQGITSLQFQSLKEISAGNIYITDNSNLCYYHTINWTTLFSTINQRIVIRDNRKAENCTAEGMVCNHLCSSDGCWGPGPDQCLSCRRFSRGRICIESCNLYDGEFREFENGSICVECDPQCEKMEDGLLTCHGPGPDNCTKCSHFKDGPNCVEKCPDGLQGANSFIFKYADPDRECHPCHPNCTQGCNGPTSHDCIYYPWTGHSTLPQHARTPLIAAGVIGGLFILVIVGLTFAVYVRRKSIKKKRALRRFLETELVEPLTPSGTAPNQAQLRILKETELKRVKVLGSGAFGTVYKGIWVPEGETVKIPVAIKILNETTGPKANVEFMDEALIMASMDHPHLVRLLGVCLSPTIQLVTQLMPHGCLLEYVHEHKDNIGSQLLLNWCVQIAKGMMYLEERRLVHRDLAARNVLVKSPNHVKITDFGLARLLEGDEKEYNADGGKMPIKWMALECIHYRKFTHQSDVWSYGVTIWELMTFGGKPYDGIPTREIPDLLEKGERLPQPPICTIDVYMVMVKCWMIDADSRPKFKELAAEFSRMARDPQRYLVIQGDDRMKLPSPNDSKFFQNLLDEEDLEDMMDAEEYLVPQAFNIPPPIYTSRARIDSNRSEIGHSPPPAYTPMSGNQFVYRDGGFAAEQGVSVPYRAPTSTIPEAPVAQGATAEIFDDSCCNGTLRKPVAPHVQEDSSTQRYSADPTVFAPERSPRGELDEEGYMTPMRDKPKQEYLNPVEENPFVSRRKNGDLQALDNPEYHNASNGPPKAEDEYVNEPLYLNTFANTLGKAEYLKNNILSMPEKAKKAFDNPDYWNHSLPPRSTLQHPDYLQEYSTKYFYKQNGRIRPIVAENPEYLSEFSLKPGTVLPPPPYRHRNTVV

Row | IC50 (A549 [1]) | IC50 (A-375) | IC50 (MCF7 [2]) | SMILES | other results
1 | > 100 µM | > 100 µM | > 100 µM | O=[N+]([O-])c1ccc(-c2csc(N3N=C(c4ccc(N5CCCCC5)cc4)CC3c3ccc(Cl)cc3)n2)cc1 (stereo not drawn) | –
2 | > 100 µM | > 100 µM | > 100 µM | COc1ccc(-c2csc(N3N=C(c4ccc(N5CCCCC5)cc4)CC3c3ccc(Cl)cc3)n2)cc1 (stereo not drawn) | –
3 | 76.5 µM | > 100 µM | 52.1 µM | Clc1ccc(C2CC(c3ccc(N4CCOCC4)cc3)=NN2c2nc(-c3ccccc3)cs2)cc1 (stereo not drawn) | –
4 | > 100 µM | > 100 µM | > 100 µM | Clc1ccc(C2CC(c3ccc(N4CCCCC4)cc3)=NN2c2nc(-c3ccc4ccccc4c3)cs2)cc1 (stereo not drawn) | –
5 | 70.2 µM | 71.4 µM | 23.1 µM | Fc1ccc(-c2csc(N3N=C(c4ccc(N5CCCCC5)cc4)CC3c3ccc(Cl)cc3)n2)cc1 (stereo not drawn) | –
6 | > 100 µM | > 100 µM | > 100 µM | CS(=O)(=O)c1ccc(-c2csc(N3N=C(c4ccc(N5CCCCC5)cc4)CC3c3ccc(Cl)cc3)n2)cc1 (stereo not drawn) | –
7 | 8.95 µM | 84.4 µM | 9.59 µM | Fc1ccc(-c2csc(N3N=C(c4ccc(N5CCOCC5)cc4)CC3c3ccc(Cl)cc3)n2)cc1 (stereo not drawn) | Activity (MCF7 [3]): 78%; selectivity ratio [4]: > 10; Activity (A549 [5]): 23%; IC50 [6]: 1.5 µM; IC50 (PBMC): > 300 µM; IC50 [7]: 6.96 µM; IC50 (Jurkat): 23.4 µM; IC50 [8]: 23.3 µM; IC50 [9]: > 30 µM; Activity (MCF7 [10]): 8%; Activity (MCF7 [11]): 14%; Activity (A549 [12]): 65%; IC50 (Insulin receptor): 9.79 µM; Activity (A549 [13]): 12%; IC50 [14]: 3.28 µM; IC50 [15]: > 30 µM; IC50 [16]: 10.5 µM
8 | > 100 µM | > 100 µM | > 100 µM | O=[N+]([O-])c1ccc(-c2csc(N3N=C(c4ccc(N5CCOCC5)cc4)CC3c3ccc(Cl)cc3)n2)cc1 (stereo not drawn) | –
9 | 10.7 µM | > 100 µM | 67.2 µM | CS(=O)(=O)c1ccc(-c2csc(N3N=C(c4ccc(N5CCOCC5)cc4)CC3c3ccc(Cl)cc3)n2)cc1 (stereo not drawn) | –
10 | 39.7 µM | > 100 µM | > 100 µM | Clc1ccc(C2CC(c3ccc(N4CCCCC4)cc3)=NN2c2nc(-c3ccc(Br)cc3)cs2)cc1 (stereo not drawn) | –
11 | 11.2 µM | 38.7 µM | 9.76 µM | N#Cc1ccc(-c2csc(N3N=C(c4ccc(N5CCCCC5)cc4)CC3c3ccc(Cl)cc3)n2)cc1 (stereo not drawn) | Activity (MCF7 [3]): 63%; selectivity ratio [4]: > 10; Activity (A549 [5]): 15%; IC50 [6]: 29 µM; IC50 (PBMC): 299 µM; IC50 [7]: > 30 µM; IC50 (Jurkat): 29.5 µM; IC50 [8]: 4.71 µM; IC50 [9]: > 30 µM; Activity (MCF7 [10]): 10%; Activity (MCF7 [11]): 27%; Activity (A549 [12]): 77%; IC50 (Insulin receptor): > 30 µM; Activity (A549 [13]): 8%; IC50 [14]: > 30 µM; IC50 [15]: > 30 µM; IC50 [16]: 25.6 µM
12 | > 100 µM | > 100 µM | > 100 µM | Clc1ccc(C2CC(c3ccc(N4CCOCC4)cc3)=NN2c2nc(-c3ccc4ccccc4c3)cs2)cc1 (stereo not drawn) | –
13 | > 100 µM | > 100 µM | > 100 µM | COc1ccc(-c2csc(N3N=C(c4ccc(N5CCOCC5)cc4)CC3c3ccc(Cl)cc3)n2)cc1 (stereo not drawn) | –
14 | > 100 µM | > 100 µM | > 100 µM | Cc1ccc(-c2csc(N3N=C(c4ccc(N5CCCCC5)cc4)CC3c3ccc(Cl)cc3)n2)cc1 (stereo not drawn) | –
15 | 94.3 µM | > 100 µM | 70.6 µM | Clc1ccc(C2CC(c3ccc(N4CCOCC4)cc3)=NN2c2nc(-c3ccc(Br)cc3)cs2)cc1 (stereo not drawn) | –
16 | > 100 µM | > 100 µM | 37.4 µM | NC(=S)N1N=C(c2ccc(N3CCOCC3)cc2)CC1c1ccc(Cl)cc1 (stereo not drawn) | –
17 | 19 µM | 75.9 µM | 14.9 µM | Clc1ccc(-c2csc(N3N=C(c4ccc(N5CCOCC5)cc4)CC3c3ccc(Cl)cc3)n2)cc1 (stereo not drawn) | –
18 | 22.4 µM | 27.3 µM | 8.24 µM | C#Cc1cccc(Nc2ncnc3cc(OCCOC)c(OCCOC)cc23)c1 [ERLOTINIB] | Activity (MCF7 [3]): 66%; Activity (A549 [5]): 19%; IC50 (PBMC): 39.3 µM; IC50 (Jurkat): 12.1 µM; Activity (MCF7 [10]): 13%; Activity (MCF7 [11]): 21%; Activity (A549 [12]): 72%; Activity (A549 [13]): 9%
19 | 33.8 µM | > 100 µM | 22.3 µM | NC(=S)N1N=C(c2ccc(N3CCCCC3)cc2)CC1c1ccc(Cl)cc1 (stereo not drawn) | –
20 | > 100 µM | > 100 µM | > 100 µM | Cc1ccc(-c2csc(N3N=C(c4ccc(N5CCOCC5)cc4)CC3c3ccc(Cl)cc3)n2)cc1 (stereo not drawn) | –
21 | 64.2 µM | 65.8 µM | 28.4 µM | Clc1ccc(C2CC(c3ccc(N4CCCCC4)cc3)=NN2c2nc(-c3ccccc3)cs2)cc1 (stereo not drawn) | –
22 | 39.3 µM | > 100 µM | > 100 µM | FC(F)(F)c1ccc(-c2csc(N3N=C(c4ccc(N5CCOCC5)cc4)CC3c3ccc(Cl)cc3)n2)cc1 (stereo not drawn) | –
23 | 10.8 µM | 53.5 µM | 8.05 µM | N#Cc1ccc(-c2csc(N3N=C(c4ccc(N5CCOCC5)cc4)CC3c3ccc(Cl)cc3)n2)cc1 (stereo not drawn) | Activity (MCF7 [3]): 51%; selectivity ratio [4]: > 10; Activity (A549 [5]): 19%; IC50 [6]: 4.68 µM; IC50 (PBMC): 299 µM; IC50 [7]: 2.28 µM; IC50 (Jurkat): 41 µM; IC50 [9]: > 30 µM; Activity (MCF7 [10]): 27%; Activity (MCF7 [11]): 32%; Activity (A549 [12]): 68%; IC50 (Insulin receptor): > 30 µM; Activity (A549 [13]): 13%; IC50 [14]: 10.3 µM; IC50 [15]: > 30 µM; IC50 [16]: 10.8 µM
24 | 42 µM | 64.2 µM | 23.7 µM | FC(F)(F)c1ccc(-c2csc(N3N=C(c4ccc(N5CCCCC5)cc4)CC3c3ccc(Cl)cc3)n2)cc1 (stereo not drawn) | –
25 | 46.4 µM | > 100 µM | > 100 µM | Clc1ccc(-c2csc(N3N=C(c4ccc(N5CCCCC5)cc4)CC3c3ccc(Cl)cc3)n2)cc1 (stereo not drawn) | –

— ChEMBL document CHEMBL4406839, “Design, synthesis and biological evaluation of a new series of thiazolyl-pyrazolines as dual EGFR and HER2 inhibitors” (Eur J Med Chem, 2019)
